Measured values taken from PubChem BioAssay (NCI).
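Following 48 hours of exposure in 96-well plates, responses at five concentrations were used to interpolate endpoints linearly. Here, GI50 denotes the concentration required for 50% inhibition of growth. TGI: total growth inhibition.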

Key:
Experiment in all cases: NCI-60 cell line screen, 48 h
[1] = tested on: 786-0 renal
[2] = tested on: A498 renal
[3] = tested on: A549 NSCLC
[4] = tested on: ACHN renal
[5] = tested on: BT-549 breast
[6] = tested on: CAKI-1 renal
[7] = tested on: CCRF-CEM leukemia
[8] = tested on: COLO 205 colon
[9] = tested on: DU-145 prostate
[10] = tested on: EKVX NSCLC
[11] = tested on: HCC-2998 colon
[12] = tested on: HCT-116 colon
[13] = tested on: HCT-15 colon
[14] = tested on: HL-60(TB) leukemia
[15] = tested on: HOP-62 NSCLC
[16] = tested on: HOP-92 NSCLC
[17] = tested on: HS 578T breast
[18] = tested on: HT29 colon
[19] = tested on: IGROV1 ovarian
[20] = tested on: K-562 leukemia
[21] = tested on: KM12 colon
[22] = tested on: LOX IMVI melanoma
[23] = tested on: M14 melanoma
[24] = tested on: MALME-3M melanoma
[25] = tested on: MCF7 breast
[26] = tested on: MDA-MB-231 breast
[27] = tested on: MDA-MB-435
[28] = tested on: MOLT-4 leukemia
[29] = tested on: NCI-H226 lung

COc1ccc(C(=O)COc2cccc(/C=C3\CSc4ccccc4C3=O)c2)cc1
GI50 [1]: 1.75 µM
TGI [1]: 3.69 µM
GI50 [2]: 16.5 µM
TGI [2]: 32 µM
GI50 [3]: 9.04 µM
TGI [3]: 39.5 µM
GI50 [4]: 1.93 µM
TGI [4]: 3.86 µM
GI50 [5]: 1.8 µM
TGI [5]: 3.67 µM
GI50 [6]: 4.07 µM
TGI [6]: 12.5 µM
GI50 [7]: 0.313 µM
TGI [7]: 1.09 µM
GI50 [8]: 2.93 µM
TGI [8]: 6.95 µM
GI50 [9]: 2.53 µM
TGI [9]: 5.4 µM
GI50 [10]: 5.3 µM
TGI [10]: 14.8 µM
GI50 [11]: 1.82 µM
TGI [11]: 3.39 µM
GI50 [12]: 1.35 µM
TGI [12]: 2.78 µM
GI50 [13]: 2.08 µM
TGI [13]: 6.07 µM
GI50 [14]: 2.25 µM
TGI [14]: > 23.2 µM
GI50 [15]: 2.84 µM
TGI [15]: 7.6 µM
GI50 [16]: 2.4 µM
TGI [16]: 9.08 µM
GI50 [17]: 0.424 µM
TGI [17]: 4.91 µM
GI50 [18]: 1.55 µM
TGI [18]: 3.18 µM
GI50 [19]: 1.49 µM
TGI [19]: 3.35 µM
GI50 [20]: 0.362 µM
GI50 [21]: 1.56 µM
TGI [21]: 3.05 µM
GI50 [22]: 1.54 µM
TGI [22]: 2.98 µM
GI50 [23]: 2.01 µM
TGI [23]: 4.01 µM
GI50 [24]: 2.2 µM
TGI [24]: 5.58 µM
GI50 [25]: 0.537 µM
TGI [25]: 2.22 µM
GI50 [26]: 4.33 µM
TGI [26]: 12.5 µM
GI50 [27]: 1.98 µM
TGI [27]: 4.62 µM
GI50 [28]: 0.913 µM
TGI [28]: 19.3 µM
GI50 [29]: 4.63 µM
TGI [29]: 14.9 µM
